Experimental data: publication PMC2743475 (Bioorganic & medicinal chemistry, 2009)

Columns and labels:
[1] = test system: PC-3M prostate cancer cells; conditions: mice; cited from earlier work
[2] = test system: PC-3M prostate cancer cells; conditions: PC-3M cells, MTT; cited from earlier work
[3] = test system: PC-3M prostate cancer cells; conditions: PC-3M cells, spheroid disaggregation; cited from earlier work
prostate cancer cells = conditions: even at 200 µM in vitro; cited from earlier work
[4] = in vivo, up to 200 mg/kg; cited from earlier work
Recombinant GSK-3β = Recombinant GSK-3β (Homo sapiens, UniProt P49841); experiment: in vitro GSK-3β inhibitory assay using Tau [pS396] phosphoELISA kit
Recombinant GSK-3β, sequence (P49841 whole entry): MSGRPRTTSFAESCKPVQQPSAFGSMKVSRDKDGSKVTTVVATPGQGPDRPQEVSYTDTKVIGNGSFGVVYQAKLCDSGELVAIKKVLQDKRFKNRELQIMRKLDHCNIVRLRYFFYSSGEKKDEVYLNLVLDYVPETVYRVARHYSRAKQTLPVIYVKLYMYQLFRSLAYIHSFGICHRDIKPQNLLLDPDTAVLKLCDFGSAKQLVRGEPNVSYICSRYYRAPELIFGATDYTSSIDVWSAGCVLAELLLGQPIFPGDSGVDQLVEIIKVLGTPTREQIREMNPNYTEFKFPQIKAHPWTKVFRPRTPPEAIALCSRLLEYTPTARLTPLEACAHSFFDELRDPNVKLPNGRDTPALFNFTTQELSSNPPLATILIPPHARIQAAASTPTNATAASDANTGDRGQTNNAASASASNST

| SMILES | cytotoxic effects at the test doses [1] | formation of tumor micrometastases in distant organs [1] | orthotopic tumor growth [1] | in vitro anti-growth / proliferation [2] | in vitro anti-invasive properties / invasion [3] | cytotoxicity (prostate cancer cells) | CNS-depressant effects [4] | IC50 (Recombinant GSK-3β) |
| --- | --- | --- | --- | --- | --- | --- | --- | --- |
| O=C1NC(=O)/C(=C/c2ccc(O)cc2)N1 [Compound 1, (Z)-5-(4-hydroxybenzylidene)-hydantoin] | without apparent cytotoxic effects | inhibited | decreased | potent | potent | – | – | – |
| CCN(CC)c1ccc(/C=C2\NC(=O)NC2=O)cc1 [Compound 3] | – | – | – | – | – | lack of cytotoxicity | did not show CNS-depressant effects | – |
| COc1cccc(/C=C2\NC(=O)NC2=O)c1 [Compound 4] | – | – | – | – | – | – | – | 14.1 ± 1.9 µM |
| CCSc1ccc(/C=C2\NC(=O)NC2=O)cc1 [Compound 2, (Z)-5-(4-(ethylthio)benzylidene)-hydantoin] | without apparent cytotoxic effects | inhibited | decreased | potent | potent | – | – | – |
